Values after ≈ are worked out from the molar mass of the structure shown. Each block holds one compound with its values, some of them ahead of it.
Columns and labels:
ECV-304 = assay: Cytotoxicity against human ECV-304 cells; format: functional, cell-based
A549 [1] = assay: Cytotoxicity against human A549 cells assessed as inhibition of cell growth; format: functional, cell-based
SK-MEL-28 [2] = assay: Cytotoxicity against human SK-MEL-28 cells assessed as inhibition of cell growth; format: functional, cell-based
NCI-H929 = assay: Cytotoxicity against human NCI-H929 cells; format: functional, cell-based
A549 [3] = assay: Cytotoxicity against human A549 cells; format: functional, cell-based
HT-29 [4] = assay: Cytotoxicity against human HT-29 cells assessed as inhibition of cell growth; format: functional, cell-based
P388 [5] = assay: Cytotoxicity against mouse P388 cells assessed as inhibition of cell growth; format: functional, cell-based
CAL-27 = assay: Cytotoxicity against human CAL-27 cells; format: functional, cell-based
[6] = Cytotoxicity against human Huh7.5 cells assessed as reduction in cell viability incubated for 72 hrs by CCK-8 assay; format: toxicity, cell-based, Huh-7.5
SK-MEL-28 [7] = assay: Cytotoxicity against human SK-MEL-28 assessed as inhibition of cell growth incubated for 48 hrs; format: functional, cell-based; settings: SK-MEL-28, 48 h
HCT-116 [8] = assay: Antiproliferative activity against human HCT-116 cells assessed as reduction in cell viability incubated for 24 hrs by MTT assay; format: functional, cell-based; settings: HCT-116, 24 h
QG-56 = assay: Cytotoxicity against human QG-56 cells assessed as reduction in cell growth incubated for 24 hrs by MTT assay; format: functional, cell-based; settings: QG-56, 24 h
P388 [9] = assay: Cytotoxicity against mouse P388 cells assessed as inhibition of cell growth incubated for 48 hrs; format: functional, cell-based; settings: P388, 48 h
DU-145 [10] = assay: Cytotoxicity against human DU-145 cells assessed as cell growth inhibition measured after 48 hrs by MTT assay; format: functional, cell-based; settings: DU-145, 48 h
A549 [11] = assay: Cytotoxicity against human A549 assessed as inhibition of cell growth incubated for 48 hrs; format: functional, cell-based; settings: A549, 48 h
HT-29 [12] = assay: Cytotoxicity against human HT-29 assessed as inhibition of cell growth incubated for 48 hrs; format: functional, cell-based; settings: HT-29, 48 h
BC = assay: Cytotoxicity against human BC cells assessed as inhibition of cell growth; format: functional, cell-based
HepG2 [13] = assay: Cytotoxicity against human HepG2 cells assessed as reduction in cell viability incubated for 72 hrs by SRB assay; format: functional, cell-based; settings: HepG2, 72 h
SF-268 [14] = assay: Cytotoxicity against human SF-268 cells assessed as reduction in cell viability incubated for 72 hrs by SRB assay; format: functional, cell-based; settings: SF-268, 72 h
[15] = Cytotoxicity against human Huh-7 cells assessed as reduction in cell growth; format: toxicity, cell-based
HepG2 [16] = assay: Cytotoxicity against human HepG2 cells assessed as reduction in cell growth; format: functional, cell-based
U-937 [17] = assay: Cytotoxicity against human U-937 cells assessed as inhibition of cell growth; format: functional, cell-based
HL-60 = assay: Cytotoxicity against human HL-60 cells assessed as reduction in cell growth; format: functional, cell-based
T47D = assay: Antiproliferative activity against human T47D cells incubated for 48 hrs by MTT assay; format: functional, cell-based
K562 = assay: Cytotoxicity against human K562 cells assessed as reduction in cell growth by MTT assay; format: functional, cell-based
[18] = Cytotoxicity against human A2780cis cells assessed as cell growth inhibition by SRB assay; format: functional, cell-based
L5178Y = assay: Cytotoxicity against mouse L5178Y cells assessed as reduction in cell growth by MTT assay; format: functional, cell-based
FaDu = assay: Growth inhibition of human FaDu cells; format: functional
NCI-H460 [19] = assay: Growth inhibition of human NCI-H460 cells; format: functional
SF-268 [20] = assay: Growth inhibition of human SF-268 cells; format: functional
SK-N-SH = assay: Growth inhibition of human SK-N-SH cells; format: functional
BXPC-3 = assay: Growth inhibition of human BXPC-3 cells assessed as reduction in cell viability measured after 3 days by CCK-8 assay; format: functional; settings: BXPC-3, 72 h, time 3 day
P388 [21] = assay: Anticancer activity against mouse P388 cells assessed as inhibition of cell growth; format: functional; settings: read-out: ED50 (the source's name)
KM-20L2 = assay: Growth inhibition of human KM-20L2 cells; format: functional
MCF7 [22] = assay: Growth inhibition of human MCF7 cells; format: functional
DU-145 [23] = assay: Growth inhibition of human DU-145 cells; format: functional
SW-1736 = assay: Growth inhibition of human SW-1736 cells; format: functional
MCF7 [24] = assay: Cytotoxicity against human MCF7 cells; format: functional, cell-based
HeLa = assay: Cytotoxicity against human HeLa cells; format: functional, cell-based
HEp-2 = assay: Cytotoxicity against human HEp-2 cells assessed as reduction in cell growth; format: functional, cell-based
HCT-116 [25] = assay: Cytotoxicity against human HCT-116 cells; format: functional, cell-based
HepG2 [26] = assay: Cytotoxicity against human HepG2 cells; format: functional, cell-based
P388 [27] = assay: Cytotoxicity against mouse P388 cells assessed as cell growth inhibition; format: functional; settings: read-out: ED50 (the source's name)
PC-3 = assay: Cytotoxicity against human PC-3 cells assessed as reduction in cell viability measured after 72 hrs by MTT assay; format: functional, cell-based; settings: PC-3, 72 h
U-937 [28] = assay: Cytotoxicity against human U-937 cells assessed as reduction in cell viability incubated for 72 hrs by MTT assay; format: functional, cell-based; settings: U-937, 72 h
[29] = Cytotoxicity against human BEAS-2B cells incubated for 72 hrs measured by MTT assay; format: toxicity, cell-based
NCI-H23 = assay: Cytotoxicity against human NCI-H23 cells assessed as reduction in cell viability incubated for 48 hrs by MTT assay; format: functional, cell-based; settings: NCI-H23, 48 h
NCI-H460 [30] = assay: Cytotoxicity against human NCI-H460 cells assessed as reduction in cell viability incubated for 48 hrs by MTT assay; format: functional, cell-based; settings: NCI-H460, 48 h
A549 [31] = assay: Cytotoxicity against human A549 cells assessed as reduction in cell viability measured after 24 hrs by MTT assay; format: functional, cell-based; settings: A549, 24 h

SMILES: COc1cc2c(cc1O)CCN[C@@]21CS[C@@H]2c3c(OC(C)=O)c(C)c4c(c3[C@H](COC1=O)N1[C@@H]2[C@H]2c3c(cc(C)c(OC)c3O)C[C@@H]([C@@H]1O)N2C)OCO4
- IC50 (ECV-304): 1.6 nM
- IC50 (A549 [1]): 0.0002 µg/mL (≈ 0.000263 µM)
- IC50 (SK-MEL-28 [2]): 0.005 µg/mL (≈ 0.00656 µM)
- IC50 (NCI-H929): 1.1 nM
- IC50 (A549 [3]): 1.5 nM
- IC50 (HT-29 [4]): 0.0005 µg/mL (≈ 0.000656 µM)
- IC50 (P388 [5]): 200 nM
- IC50 (CAL-27): 0.9 nM

SMILES: CO[C@H]1CC(=O)[C@@H]2C[C@@]34SS[C@]5(C[C@H]6C(=O)C[C@H](OC)[C@H](O)[C@H]6N5C3=O)C(=O)N4[C@@H]2[C@H]1O
- IC50 at 72 h [6]: 4880 nM

SMILES: COC1=C(C)C(=O)C2=C(C1=O)[C@H]1[C@@H]3CC4=C(C(=O)C(OC)=C(C)C4=O)[C@H](COC(C)=O)N3[C@@H](O)[C@@H](C2)N1C
- IC50 (SK-MEL-28 [7]): 0.0125 µg/mL (≈ 0.0237 µM)
- IC50 (HCT-116 [8]): 0.57 nM
- IC50 (QG-56): 0.76 nM
- IC50 (P388 [9]): 0.0125 µg/mL (≈ 0.0237 µM)
- IC50 (DU-145 [10]): 0.49 nM
- IC50 (A549 [11]): 0.0125 µg/mL (≈ 0.0237 µM)
- IC50 (HT-29 [12]): 0.0125 µg/mL (≈ 0.0237 µM)
- IC50 (BC): 2.5 nM

SMILES: C=CC(C)(C)c1[nH]c2ccccc2c1/C=C1\NC(=O)[C@@]2(CC[C@]3(O)c4cc(C)cc(O)c4C(=O)c4c(O)cc(OC)c2c43)NC1=O
- IC50 (HepG2 [13]): 37300 nM
- IC50 (SF-268 [14]): 30100 nM

SMILES: C[C@H]1CN2CC[C@]34C[C@@]5(C(=O)Nc6c5ccc5c6C(=O)CC(C)(C)O5)C(C)(C)[C@@H]3[C@@]2(C1)C(=O)N4C
- IC50 [15]: 2800 nM
- IC50 (HepG2 [16]): 3700 nM

- IC50 (T47D): 11.6 µg/mL (≈ 30.2 µM)
SMILES: CC(C)=CCC/C(C)=C/COc1ccc(/C=C2/NC(=O)[C@H](C)N(O)C2=O)cc1
- IC50 (U-937 [17]): 11.6 µg/mL (≈ 30.2 µM)
- IC50 (HL-60): 11.6 µg/mL (≈ 30.2 µM)

SMILES: C[C@]12NC(=O)[C@@H](Cc3c1[nH]c1ccccc31)n1c2nc2ccccc2c1=O
- IC50 (K562): 15000 nM
- IC50 [18]: 38800 nM
- IC50 (L5178Y): 3600 nM

SMILES: CN1C(=O)N[C@H]2[C@@H]3NC(=O)c4ccc(Br)n4[C@@H]3C[C@]21O [AGELASTATIN A]
- GI50 (FaDu): 0.24 µg/mL (≈ 0.703 µM)
- GI50 (NCI-H460 [19]): 0.036 µg/mL (≈ 0.106 µM)
- GI50 (SF-268 [20]): 0.038 µg/mL (≈ 0.111 µM)
- GI50 (SK-N-SH): 0.042 µg/mL (≈ 0.123 µM)
- GI50 (BXPC-3): 0.089 µg/mL (≈ 0.261 µM)
- EC50 (P388 [21]): 0.052 µg/mL (≈ 0.152 µM)
- GI50 (KM-20L2): 0.036 µg/mL (≈ 0.106 µM)
- GI50 (MCF7 [22]): 0.033 µg/mL (≈ 0.0967 µM)
- GI50 (DU-145 [23]): 0.056 µg/mL (≈ 0.164 µM)
- GI50 (SW-1736): 0.12 µg/mL (≈ 0.352 µM)

SMILES: CC(C)/C=C1\NC(=O)[C@H](CCC(N)=O)n2c1nc1ccccc1c2=O [AURANTIOMIDE C]
- IC50 (MCF7 [24]): 20.5 µg/mL (≈ 60.2 µM)
- IC50 (HeLa): 18.5 µg/mL (≈ 54.3 µM)
- IC50 (HEp-2): 37.6 µg/mL (≈ 111 µM)
- IC50 (HCT-116 [25]): 9.51 µg/mL (≈ 27.9 µM)
- IC50 (HepG2 [26]): 23.9 µg/mL (≈ 70.3 µM)

SMILES: CS[C@H]1C(=O)N2[C@H]3Nc4ccccc4[C@@]3(c3c[nH]c4ccccc34)[C@H](O)[C@]2(SC)C(=O)N1C [BIONECTIN C]
- EC50 (P388 [27]): 6.5 µg/mL (≈ 13.5 µM)

SMILES: CS[C@]1(CO)C(=O)N2[C@H]3C(=CC=C[C@@H]3O)C[C@@]2(SC)C(=O)N1C [BIS(DETHIO)BIS(METHYLTHIO)GLIOTOXIN]
- IC50 (PC-3): 390 nM
- IC50 (U-937 [28]): 200 nM

SMILES: COC1=C(C)C(=O)C2=C(C1=O)[C@@H]1[C@@H]3CC4=C(C(=O)C(OC)=C(C)C4=O)[C@H](CO)N3[C@@H](C#N)[C@H](C2)N1C [JOURNNAMYCIN A]
- IC50 (HCT-116 [8]): 13 nM
- IC50 at 72 h [29]: 14800 nM
- IC50 (NCI-H23): 2300 nM
- IC50 (QG-56): 59 nM
- IC50 (DU-145 [10]): 29 nM
- IC50 (NCI-H460 [30]): 8000 nM
- IC50 (A549 [31]): 3100 nM
